The nature of this series: passive permeability, PAMPA, ADME assay (AID 1508612). To be noted: pH 7.4, 30.0 min, 50.0 µM. On the technique in general: In PAMPA a lipid-coated filter parts donor from acceptor wells.

As for `Cc1ccnc(NC(=S)N2CCN(c3cccc(C(F)(F)F)c3)CC2)c1`, the Papp (as a rule, the rate of passage across a membrane or cell layer, normalised by area and donor concentration) is > 1000 ×10⁻⁶ cm/s.
For `Cc1cccc(S(=O)(=O)Nc2cnccc2C(=O)Nc2nc(-c3ccccc3)cs2)c1` the value was 860 ×10⁻⁶ cm/s; for `Cc1cc(C)nc(NC(=S)N2CCN(c3ccc(Cl)cc3F)CC2)c1`, > 1000 ×10⁻⁶ cm/s.
The same measure for `CN(C(=O)c1cn2c(-c3ccc(C(F)(F)F)cc3)cnc2cn1)c1ccc(C#N)cc1`: 874 ×10⁻⁶ cm/s; for `Fc1cccc(CNc2nc(-c3ccccc3C(F)(F)F)nc3ccccc23)c1`: 315 ×10⁻⁶ cm/s.
The same measure for `c1cc(-c2cc(-c3ccncc3)c3cncn3c2)c2[nH]ncc2c1`: 25.1 ×10⁻⁶ cm/s.
As to `O=C(NCc1ccncc1)c1nc(-c2cccnc2)c2cnccn12`, the Papp was found to be 6.35 ×10⁻⁶ cm/s. This Papp lies about 4-fold lower than the previous one.
Turning to `COc1ccnc(NC(=S)N2CCN(c3cccc(C(F)(F)F)c3)CC2)c1`, the Papp was 417 ×10⁻⁶ cm/s.
The same measure for `COc1ccc(-c2c(-c3cc(C(=O)O)ccn3)ncn2C)cc1`: 3.06 ×10⁻⁶ cm/s; for `COc1ccc(CCNC(=O)c2cc3c(=O)n4ccccc4nc3n(CCCN3CCOCC3)c2=N)cc1`: 394 ×10⁻⁶ cm/s; for `COc1ccc(CN(C2CCCCC2C)S(=O)(=O)c2ccc(S(=O)(=O)N(C)C)cc2)cc1OC` (centres undefined): 18.8 ×10⁻⁶ cm/s.
As for `Cn1c(=O)c2cc(C(=O)NCCCN3CCN(c4ccccc4F)CC3)sc2c2ccccc21`, the Papp is > 1000 ×10⁻⁶ cm/s.
For `CCOc1ccc(CCNC(=O)c2cc3cccnc3n2Cc2cccc(C)c2)cc1OCC` the value was > 1000 ×10⁻⁶ cm/s; for `Cc1ccc(OCCn2c(CCNC(=O)c3ccc(Cl)cc3)nc3ccccc32)cc1`, 754 ×10⁻⁶ cm/s.
For `Cc1ccc2nc(-c3cc(NC(=O)c4ccc5c(c4)OCCO5)ccc3Cl)oc2c1` the value was 144 ×10⁻⁶ cm/s; for `C=C1C(=O)O[C@@H]2[C@H]3O[C@]3(C)CC/C=C(\C)CC[C@@H]12`, > 1000 ×10⁻⁶ cm/s.
For `CC(=O)Nc1ccc(OCc2cn(CC(=O)c3ccc(O)cc3)nn2)cc1` the value was < 1 ×10⁻⁶ cm/s; for `Cc1noc(C)c1-c1ccc(Nc2nc(-c3ccncc3)nc3ccccc23)cc1F`, 410 ×10⁻⁶ cm/s.
In turn, `CN(C)C(=O)c1cccc(-c2csc(N3CCC(C(N)=O)CC3)n2)c1` showed a Papp of 30.5 ×10⁻⁶ cm/s.
For `O=C1CCc2ccc(OCCCCN3CCN(c4cccc(Cl)c4Cl)CC3)cc2N1` the value was > 1000 ×10⁻⁶ cm/s.
For `COc1cc(-c2nc(-c3ccccc3)c(-c3cccs3)[nH]2)cc(OC)c1O` the value was 530 ×10⁻⁶ cm/s.
For `Fc1cnc(-c2ccccc2C(F)F)nc1NCC1CCN(c2cnccn2)CC1` the value was > 1000 ×10⁻⁶ cm/s; for `CCn1ncc(NC(=O)Cn2ncc3cc(-c4cccc(OC)c4)ccc32)n1`, > 1000 ×10⁻⁶ cm/s; for `NCC(=O)Nc1cncc(-c2nn3c(=O)cc(N4CCNCC4)nc3s2)c1`, < 1 ×10⁻⁶ cm/s.
The compound `COc1ccc(Cn2c(C(=O)O)c(CNCc3ccco3)c3ccc(C)cc32)cc1` gave a Papp of 654 ×10⁻⁶ cm/s.
For `N#CC1CCN(c2nc(-c3ccc(Br)cc3)cs2)CC1` the value was 671 ×10⁻⁶ cm/s; for `COc1cccc(C(=O)Nc2ccc([S+](=O)([O-])Nc3nccs3)cc2)c1O`, 3.5 ×10⁻⁶ cm/s.
For `COc1ccc(-c2nc3ccccc3c(=O)n2Cc2ccco2)cc1COc1ccc(NC(C)=O)cc1` the value was 8.72 ×10⁻⁶ cm/s.
The same measure for `Cc1ccc(S(=O)(=O)Nc2ccccc2C(=O)Nc2nccs2)cc1`: 478 ×10⁻⁶ cm/s; for `CCCN(CCC)CCc1cccc2c1CC(=O)N2`: 179 ×10⁻⁶ cm/s.
Take `O=C([C@H](Cc1ccc(O[S+](=O)([O-])c2cccc3cnccc23)cc1)N[S+](=O)([O-])c1cccc2cnccc12)N1CCN(Cc2ccccc2)CC1`: the apparent permeability (Papp) came to 399 ×10⁻⁶ cm/s. This Papp lies about 2.2-fold higher than the previous one.
The same measure for `Cc1csc2nc(-c3cccc(NC(=O)c4cccc(F)c4)c3)cn12`: > 1000 ×10⁻⁶ cm/s; for `CNC(=O)C1CCN(C(=O)c2ccc(-c3ncc4cnc(-c5ccccc5)cn34)cc2)CC1`: 15.4 ×10⁻⁶ cm/s.
`COC(=O)c1nc(-c2cccc3ccccc23)oc1OC` yielded a Papp of 939 ×10⁻⁶ cm/s.
`COc1ccc(CNC(=O)CCCn2nc(C)c3c(C)n(-c4ccc(C)cc4)nc3c2=O)cc1OC` yielded an apparent permeability (Papp) of 235 ×10⁻⁶ cm/s. This Papp lies about 4-fold lower than the previous one.
The same measure for `C[C@@H](NC(=O)c1ncnc(N)c1Cl)c1ncc(C(=O)Nc2cc(C(F)(F)F)c(Cl)cn2)s1`: > 1000 ×10⁻⁶ cm/s; for `Cc1nn2c(c1-c1ccccc1-c1ccccc1)N(Cc1ccccc1)CCC2`: 381 ×10⁻⁶ cm/s; for `COc1cncc(Nc2ncc(-c3cccc(N(C)C)c3)c3c2OCC3)c1`: < 1 ×10⁻⁶ cm/s.
As to `CC(C)(C)c1ccc(S(=O)(=O)N2CCC(c3ccncc3)CC2)cc1`, the Papp amounted to 320 ×10⁻⁶ cm/s.
The same measure for `Nc1nc(Nc2ccc(S(N)(=O)=O)cc2)n(C(=S)Nc2c(F)cccc2F)n1`: 6.07 ×10⁻⁶ cm/s.
The same measure for `Cc1ccc(-c2csc(Nc3ccc(S(=O)(=O)Nc4nccs4)cc3)n2)cc1C`: 22 ×10⁻⁶ cm/s; for `CCc1cccc(NC(=O)C(Cc2ccccc2)NS(=O)(=O)c2cccs2)c1` (centres undefined): 887 ×10⁻⁶ cm/s.
For `O=C(O)c1ccccc1-c1ccc(/C=c2\sc3nc4cc(Br)cnc4n3c2=O)o1` the value was 12.3 ×10⁻⁶ cm/s; for `CCc1ccc(C2C(C(=O)Nc3ccccc3OC)=C(C)Nc3c(C(=O)Nc4ccc(C)cc4)cnn32)cc1` (centres undefined), 547 ×10⁻⁶ cm/s.
`COc1cccc(C(=O)Nc2ccc3c(N4CCOCC4)ncnc3c2)c1` returned an apparent permeability coefficient (Papp) of 39 ×10⁻⁶ cm/s. Compared with the last compound, the Papp is about 14-fold lower.
For `Clc1ccccc1-c1nnc2sc(-c3ccc4c(c3)OCO4)nn12` the value was 958 ×10⁻⁶ cm/s.
Take `Cc1ccc(S(=O)(=O)NCc2ccccc2)cc1`: the apparent permeability coefficient (Papp) amounted to 537 ×10⁻⁶ cm/s.
For `Cc1nc2ccc(NC(=O)c3cc(S(=O)(=O)N(C)c4ccccc4)ccc3Cl)cc2s1` the value was 70 ×10⁻⁶ cm/s.
The same measure for `CC(C)CCNC(=O)[C@H](CC(C)C)NC(=O)[C@H]1O[C@@H]1C(=O)O`: < 1 ×10⁻⁶ cm/s.
In the case of `NC(=O)COc1cccc(C2CC(=O)Nc3nc(N4CCCCC4)sc32)c1` (centres undefined), the apparent permeability coefficient (Papp) stood at 15.8 ×10⁻⁶ cm/s.
For `Cc1ccc(NC(=O)N2CCN(c3nc(N)nc4sc(-c5cccnc5)nc34)CC2)cc1` the value was 577 ×10⁻⁶ cm/s; for `CNc1nc(-c2cccc3ccccc23)ccc1C#N`, 985 ×10⁻⁶ cm/s; for `Cn1nnnc1Sc1ncnc2scc(-c3ccccc3F)c12`, 338 ×10⁻⁶ cm/s.
The same measure for `Cc1cnc(-c2ccccc2C(C)C)nc1NCC1CCN(C2COC2)CC1`: > 1000 ×10⁻⁶ cm/s.
The same measure for `O=C(Cc1cccc(OC(F)(F)F)c1)Nc1ccc(CCCCc2nnc(NC(=O)Cc3ccccn3)s2)nn1`: 161 ×10⁻⁶ cm/s; for `N#Cc1ccc(C(=O)Nc2ccc(Cl)c(-c3nc4cc(Cl)ccc4o3)c2)c(F)c1`: < 1 ×10⁻⁶ cm/s; for `CC(=O)c1c(C)[nH]c(C(=O)Nc2cccc([S+](=O)([O-])Nc3ccc(C#N)cc3)c2)c1C`: 178 ×10⁻⁶ cm/s.
Regarding `Cc1cc(C)c(C(=O)Nc2cccc([S+](=O)([O-])N3CCCCCC3)c2)[nH]1`, the Papp was found to be 990 ×10⁻⁶ cm/s.
The same measure for `CCOC(=O)c1ccnc(CNCC(=O)N(CC)CCN(C)C)c1`: 40.4 ×10⁻⁶ cm/s.
Turning to `COc1ccc(OC)c(CNc2ncnc3onc(C)c23)c1`, the Papp came out at 366 ×10⁻⁶ cm/s.
For `Cc1ccc2c(c1)[nH]c1c(N3CCN(Cc4ccccc4)CC3)ncnc12`, the apparent permeability coefficient (Papp) was > 1000 ×10⁻⁶ cm/s.
For `Cc1csc2c1c(=O)n(O)c(=O)n2Cc1ccccc1` the value was 116 ×10⁻⁶ cm/s; for `COc1ccc(-n2nc(C3CCN([S+](=O)([O-])c4c(C)noc4C)CC3)[nH]c2=O)cc1`, 403 ×10⁻⁶ cm/s.
`Nc1cc2nc3ccccc3oc-2cc1=O` displayed an apparent permeability coefficient (Papp) of 106 ×10⁻⁶ cm/s.
In the case of `Cc1cc(NC(=S)N2CCN(c3cccc(C(F)(F)F)c3)CC2)nc2ccccc12`, the apparent permeability coefficient (Papp) is 31.5 ×10⁻⁶ cm/s. This Papp lies about 3.4-fold lower than the previous one.
For `Cn1cnc(-c2nccc3c(=O)[nH]c(OCCCC(F)(F)F)nc23)c1` the value was 109 ×10⁻⁶ cm/s; for `Cc1cc(C)c(C(=O)Nc2cccc([S+](=O)([O-])Nc3ccc(Br)cc3)c2)[nH]1`, 737 ×10⁻⁶ cm/s; for `CC(NCc1ccc2c(c1)nc(NC(=O)c1ccc(-c3cn[nH]c3)s1)n2CC(C)(C)O)C(C)(C)C` (centres undefined), 820 ×10⁻⁶ cm/s.
For `Cc1ccccc1-c1nc(NCc2cccs2)c2ccccc2n1` the value was 406 ×10⁻⁶ cm/s; for `Brc1ccc(-c2csc(N3CCCCC3)n2)cc1`, 111 ×10⁻⁶ cm/s.
For `N#Cc1ccccc1CSc1nc2ncc(Br)cc2[nH]1` the value was 415 ×10⁻⁶ cm/s; for `Fc1cc(F)cc(Nc2nc(-c3ccncc3)nc3ccccc23)c1`, 84.9 ×10⁻⁶ cm/s.
The compound `Cc1ccc(-c2nnc(N3CCC(C(N)=O)CC3)s2)cc1` registered a Papp of 246 ×10⁻⁶ cm/s.
The same measure for `O=C1Nc2ccccc2/C1=C\c1cc(F)c(O)c(F)c1`: 26.9 ×10⁻⁶ cm/s; for `COC(=O)CNC(=O)c1nc(-c2ccc(Cl)nc2)c2ccccn12`: > 1000 ×10⁻⁶ cm/s; for `O=S(=O)(c1ccc(Cl)cc1)c1ccccn1`: 407 ×10⁻⁶ cm/s.
On to `Cc1cccc2nc(-c3ccccn3)c(Nc3ccc(F)cc3)n12`, for which the apparent permeability coefficient (Papp) is > 1000 ×10⁻⁶ cm/s.
For `NC(=O)C1CCN(c2ncc(Br)cn2)CC1` the value was 61.5 ×10⁻⁶ cm/s; for `Cc1c(Cl)cccc1NC(=O)CNS(=O)(=O)c1cccs1`, 115 ×10⁻⁶ cm/s; for `COc1ccc(CNc2ccc(S(=O)(=O)Nc3nccs3)cc2)c(O)c1`, < 1 ×10⁻⁶ cm/s.
The same measure for `COc1ccc(Nc2cc3c(nc2OC)nc(CCc2ccccc2)n3C)cn1`: > 1000 ×10⁻⁶ cm/s; for `CCCc1oc2ccc(NS(=O)(=O)c3ccc(OC)cc3)cc2c1C(=O)OCC`: < 1 ×10⁻⁶ cm/s; for `CC[C@H]1C=CC=CC[C@@H](C)[C@H](O)[C@@](C)(O)C(=O)[C@@H](C)[C@H](O)[C@@H](C)C(=O)[C@@H](C)[C@H](O)[C@@H](C)C=CC(=O)O[C@@H]2[C@@H](C)[C@H](CC1)O[C@]1(CC[C@H](C)[C@H](C[C@@H](C)O)O1)[C@H]2C`: < 1 ×10⁻⁶ cm/s.
`O=C1C2=C(Nc3ccccc3SC2c2ccco2)c2ccccc21` (centres undefined): the apparent permeability (Papp) is 371 ×10⁻⁶ cm/s.
The same measure for `C#CCNC(=O)c1nc(-c2ccc([S+](C)(=O)[O-])cc2)c2cnccn12`: < 1 ×10⁻⁶ cm/s; for `Clc1ccc(Nc2nc(-c3ccncc3)nc3ccccc23)cc1Cl`: 76.1 ×10⁻⁶ cm/s.
The same measure for `Fc1ccc(Nc2nc(-c3ccccc3)cc(-c3ccncc3)n2)cc1F`: < 1 ×10⁻⁶ cm/s; for `CC(=O)Nc1ncc(S(=O)(=O)N2CCOCC2)s1`: 37.9 ×10⁻⁶ cm/s; for `Cc1ccc(S(=O)(=O)Nc2cnccc2C(=O)Nc2ccccc2)cc1`: 123 ×10⁻⁶ cm/s.
`CCNC(=O)N1CCCN(c2ccc(C(=O)NCCc3ccc(Cl)cc3Cl)cc2NC(=O)c2cccc(Cl)c2)CC1` yielded an apparent permeability (Papp) of 202 ×10⁻⁶ cm/s. This Papp is about 1.6-fold higher than that of the compound before.
For the compound `Cc1ccc(-c2[nH]n3c(=O)c4c(nc3c2C)CCCC4)cc1`, the Papp came out at 506 ×10⁻⁶ cm/s.
The same measure for `Cc1cnc(-c2ccccc2C(F)F)nc1NCc1ccc(-n2ccnn2)cc1`: > 1000 ×10⁻⁶ cm/s.
For `CC(=O)N1CCc2cc(S(=O)(=O)NCCC3=CCCCC3)ccc21` the value was 444 ×10⁻⁶ cm/s.
With `O=C1Nc2cc(Cl)ccc2Nc2cscc21`, the apparent permeability (Papp) turned out to be 478 ×10⁻⁶ cm/s.
